Laboratory results reported in US9381208B2, “Structure and use of 5′ phosphate oligonucleotides” (Rheinische Friedrich-Wilhelms-Universität, priority 2006, dated 2016).
{ppp} = triphosphate group

Tested on: human primary monocytes
Assay: IFN-α production in human primary monocytes transfected with RNA (ELISA)
Format: cell-based
Conditions: for IFN-α production in monocytes: 200 ng RNA transfected, ELISA; for IFN-α induction (*100%) mean: monocytes from three donors, 36 hours after transfection, normalized to the mean induction level of all oligonucleotides (=100%); for IFN-α-inducing activity conferred by the 5′ 4-nucleotide sequence: adenosine-initiated in vitro transcribed RNA oligonucleotides, FIG. 13

Row | Substance | IFN-α induction (*100%) mean | IFN-α-inducing activity conferred by the 5′ 4-nucleotide sequence | further results
1 | 5′-PPPGGG AGACAGGUUUUUUUUUUUUUUUUUUUUU-3′ (GGGAGACAGGUUUUUUUUUUUUUUUUUUUUU; RNA, 5' {ppp}, backbone not given here) [tri-poly U] |  |  | IFN-α production in monocytes (24 hours): equally potent
2 | 5′-PPPGGGAGACAGGAAAAAAAAAAAAAAAAAAAAA-3′ [tri-poly A] |  |  | IFN-α production in monocytes (24 hours): equally potent
3 | 5′-PPPGGGAGACAGGCCCCCCCCCCCCCCCCCCCCC-3′ [tri-poly C] |  |  | IFN-α production in monocytes (24 hours): equally potent
4 | 5′-pppAACCUGUCCUUCAAUUACC-3′ [RNA9.2s-5A] |  |  | IFN-α production in monocytes (24 hours): paralleled RNA9.2-0A
5 | 5′-pppAGGGAAGCGGGCAUGCGGCCAGCCAUAGCCGAUCA-3′ [AΦ6.5-35 n] |  |  | IFN-α production in monocytes (24 hours): clear superiority
6 | 5′-pppGCUUAACCUGUCCUUCAAU-3′ [RNA9.2s-1G] |  |  | reduction in IFN-α induction compared with RNA9.2s-0A (monocytes, 200 ng, 24 hours): approximately 25%
7 | 5′-pppGGGAGACAGGGGGGGGGGGGGGGGGGGGGGG-3′ [tri-poly G] |  |  | IFN-α production in monocytes (24 hours): equally potent
8 | 5′-pppGGGGCUGACCCUGAAGUUCAUCUUCCC-3′ [27-mer] |  |  | IFN-α induction level (24 hours after stimulation, five donors, mean±SEM): 5876 ± 1785 pg/mL
9 | Lipopolysaccharide [LPS, reference compound] |  |  | IFN-α production in monocytes (24 hours): did not contribute to IFN-α production
10 | aaaaggggac acacacacac acacacacac (AAAAGGGGACACACACACACACACACACAC; RNA, 5' {ppp}, backbone not given here) [SEQ ID No. 121] | 0.73 *100% |  | 
11 | aaacggggac acacacacac acacacacac (AAACGGGGACACACACACACACACACACAC; RNA, 5' {ppp}, backbone not given here) [SEQ ID No. 154] | 1.15 *100% | highest IFN-α-inducing activity | 
12 | aaagggggac acacacacac acacacacac (AAAGGGGGACACACACACACACACACACAC; RNA, 5' {ppp}, backbone not given here) [SEQ ID No. 173] | 1.40 *100% | highest IFN-α-inducing activity | 
13 | aaauggggac acacacacac acacacacac (AAAUGGGGACACACACACACACACACACAC; RNA, 5' {ppp}, backbone not given here) [SEQ ID No. 146] | 1.04 *100% | highest IFN-α-inducing activity | 
14 | aacaggggac acacacacac acacacacac (AACAGGGGACACACACACACACACACACAC; RNA, 5' {ppp}, backbone not given here) [SEQ ID No. 166] | 1.30 *100% | highest IFN-α-inducing activity | 
15 | aaccggggac acacacacac acacacacac (AACCGGGGACACACACACACACACACACAC; RNA, 5' {ppp}, backbone not given here) [SEQ ID No. 156] | 1.20 *100% | highest IFN-α-inducing activity | 
16 | aacgggggac acacacacac acacacacac (AACGGGGGACACACACACACACACACACAC; RNA, 5' {ppp}, backbone not given here) [SEQ ID No. 170] | 1.34 *100% | highest IFN-α-inducing activity | 

Row | Substance | IFN-α induction (*100%) mean | IFN-α-inducing activity conferred by the 5′ 4-nucleotide sequence | further results
17 | aacuggggac acacacacac acacacacac (AACUGGGGACACACACACACACACACACAC; RNA, 5' {ppp}, backbone not given here) [SEQ ID No. 163] | 1.29 *100% | highest IFN-α-inducing activity | 
18 | aagaggggac acacacacac acacacacac (AAGAGGGGACACACACACACACACACACAC; RNA, 5' {ppp}, backbone not given here) [SEQ ID No. 134] | 0.95 *100% |  | 
19 | aagcggggac acacacacac acacacacac (AAGCGGGGACACACACACACACACACACAC; RNA, 5' {ppp}, backbone not given here) [SEQ ID No. 157] | 1.22 *100% | highest IFN-α-inducing activity | 
20 | aaggggggac acacacacac acacacacac (AAGGGGGGACACACACACACACACACACAC; RNA, 5' {ppp}, backbone not given here) [SEQ ID No. 149] | 1.11 *100% | highest IFN-α-inducing activity | 
21 | aaguggggac acacacacac acacacacac (AAGUGGGGACACACACACACACACACACAC; RNA, 5' {ppp}, backbone not given here) [SEQ ID No. 174] | 1.40 *100% | highest IFN-α-inducing activity | 
22 | aauaggggac acacacacac acacacacac (AAUAGGGGACACACACACACACACACACAC; RNA, 5' {ppp}, backbone not given here) [SEQ ID No. 112] | 0.40 *100% |  | 
23 | aaucggggac acacacacac acacacacac (AAUCGGGGACACACACACACACACACACAC; RNA, 5' {ppp}, backbone not given here) [SEQ ID No. 132] | 0.94 *100% |  | 
24 | aaugggggac acacacacac acacacacac (AAUGGGGGACACACACACACACACACACAC; RNA, 5' {ppp}, backbone not given here) [SEQ ID No. 136] | 0.96 *100% |  | 
25 | aauuggggac acacacacac acacacacac (AAUUGGGGACACACACACACACACACACAC; RNA, 5' {ppp}, backbone not given here) [SEQ ID No. 119] | 0.67 *100% |  | 
26 | acaaggggac acacacacac acacacacac (ACAAGGGGACACACACACACACACACACAC; RNA, 5' {ppp}, backbone not given here) [SEQ ID No. 142] | 1.01 *100% | highest IFN-α-inducing activity | 
27 | acacggggac acacacacac acacacacac (ACACGGGGACACACACACACACACACACAC; RNA, 5' {ppp}, backbone not given here) [SEQ ID No. 135] | 0.95 *100% |  | 
28 | acagggggac acacacacac acacacacac (ACAGGGGGACACACACACACACACACACAC; RNA, 5' {ppp}, backbone not given here) [SEQ ID No. 150] | 1.12 *100% | highest IFN-α-inducing activity | 
29 | acauggggac acacacacac acacacacac (ACAUGGGGACACACACACACACACACACAC; RNA, 5' {ppp}, backbone not given here) [SEQ ID No. 148] | 1.11 *100% | highest IFN-α-inducing activity | 
30 | accaggggac acacacacac acacacacac (ACCAGGGGACACACACACACACACACACAC; RNA, 5' {ppp}, backbone not given here) [SEQ ID No. 126] | 0.79 *100% |  | 
31 | acccggggac acacacacac acacacacac (DNA ACCCGGGGACACACACACACACACACACAC; chemistry not fully specified) [SEQ ID No. 130] | 0.89 *100% |  | 
32 | accgggggac acacacacac acacacacac (ACCGGGGGACACACACACACACACACACAC; RNA, 5' {ppp}, backbone not given here) [SEQ ID No. 122] | 0.73 *100% |  | 
